Patent US12310973B2, “Administration and dosage of diaminophenothiazines” (WisTa Laboratories Ltd., priority 2016, dated 2025)
Several values for one entry are separate records, joined by “and”; a condition that tells them apart may be missing. Equal entries are not always repeated.

Tested on: mild to moderate AD patients
Assay: Phase 3 trial in mild to moderate AD: ADCS-ADL change from baseline
Format: in vivo, human
Text: The co-primary efficacy outcomes were change from baseline in 11-item Alzheimer's Disease Assessment Scale—cognitive subscale (ADAS-cog) and the 23-item Alzheimer's Disease Cooperative Study Activities of Daily Living (ADCS-ADL). Magnetic resonance imaging (MRI) volumetry was chosen as the principal secondary outcome to support a potential effect on the rate of brain atrophy (Fox et al., 1997; Ridha et al., 2008). Change in Lateral Ventricular Volume (LVV), as measured by the Ventricular Boundary Shift Integral (VBSI), (Salloway et al., 2014) was chosen as the principal measure as it provides high-contrast boundaries for measurement and is less affected by motion artefacts than whole brain or smaller structures. Key supportive topographical measures (temporo-parietal (TPV) and hippocampal volume (HV)) are also reported.
Patients were recruited at 115 sites across 16 countries between January 2013 and August 2014. Enrolment of approximately 833 patients was targeted, with 891 patients actually recruited, in order to obtain data on approximately 500 patients completing the study, assuming a 30-40% drop-out rate. […] Adult caregiver(s) were required to participate. Concomitant use of AChEIs and/or memantine was permitted, provided the patient had been taking the medication(s) for […], with no changes to the dosage for 26 weeks prior to screening. Concomitant use of serotonergic antidepressant medication was permitted, but patients were monitored closely using a targeted rating scale derived from 4 published diagnostic criteria (Alusik et al., 2014) due to a theoretical potential for serotonin syndrome (Ramsay et al., 2007). […] Because MT^+ in high doses can induce methaemoglobinaemia, subjects with glucose-6-phosphate dehydrogenase deficiency or who were otherwise at haematological risk were excluded. Other inclusion/exclusion criteria are provided in the Supplementary Materials.
Patients were randomised at baseline to LMTM 75 mg b.i.d. or 125 mg b.i.d. (expressed as MT base equivalent) or control in a 3:3:4 ratio. The randomisation was stratified according to geographical region (3 levels: North America, Europe, rest of world), use of AD-labelled co-medications (2 levels, using or not using) and severity (2 levels, moderate MMSE 14-19 inclusive, mild MMSE 20-26 inclusive). Patients in the control arm received a dose of 4 mg b.i.d. to maintain blinding.
ADAS-cog and ADCS-ADL assessments were performed at baseline and every 13 weeks thereafter, with change at 65 weeks (the final on-treatment visit) the primary efficacy measures. These were repeated at the final off-treatment follow-up visit at Week 69. Secondary efficacy measures included Clinical Global Impression of Change (ADCS-CGIC, administered by an independent rater); MMSE, administered on screening and at Weeks 26, 52, 65 and 69. Brain MRI scans were performed at baseline/screening and every 13 weeks using a standardized protocol including volumetric 3D T1-weighted data consistent with ADNI recommendations, FLAIR, T2* Gradient Echo and T2-weighted sequences. Diffusion-Weighted Imaging was also available at screening in order to exclude patients with co-existing pathology that would lead to a diagnosis other than probable AD. Each site was first qualified ensuring standardised acquisition protocol, patient handling and data management. MRI data were centrally collected by Imaging Corelab (Bioclinica). Data were centrally reviewed by RadMD for eligibility and safety (Amyloid Related Imaging Abnormalities, or ARIA monitoring) on an on-going basis. Volumetric 3DT1 data were also reviewed centrally in order to measure (using a boundary shift integral (BSI) technique; Salloway et al., 2014) change in LVV as principal secondary outcome measure, and as exploratory endpoints temporo-parietal volume (TPV), whole brain volume (WBV) and hippocampal volume (HV, estimated as the mean of left and right) (Wischik et al., 2016). […]

CN(C)c1ccc2c(c1)Sc1cc(N(C)C)ccc1N2 [LMTM, leuco-methythioninium bis(hydromethanesulfonate)]
ADCS-ADL effect size as % of the decline over 65 weeks seen in the control arm (75 mg b.i.d. monotherapy, 65 weeks): 82%±23%
ADCS-ADL effect size as % of the decline over 65 weeks seen in the control arm (125 mg b.i.d. monotherapy, 65 weeks): 88%±23%
ADCS-ADL, Estimate (change from baseline) (Table 2 primary analysis, 65 weeks, covariates additive, control arm (LMTM 4 mg b.i.d.)): −8.22 ADCS-ADL units
ADCS-ADL, Estimate (difference with respect to control) (Table 2 primary analysis, 65 weeks, 75 mg b.i.d.): −0.93 ADCS-ADL units
ADCS-ADL, Estimate (difference with respect to control) (Table 2 primary analysis, 65 weeks, 125 mg b.i.d.): −0.34 ADCS-ADL units
ADCS-ADL, Estimate (mean additive treatment benefit) (Table 2 primary analysis, 65 weeks, patients not using AChEI/Mem (additive covariate)): 2.00 ADCS-ADL units
ADCS-ADL, Estimate (difference vs control) (Table 3, AChEI/Mem as interaction term, 65 weeks, 75 mg b.i.d. + AChEI/Mem): −2.16 ADCS-ADL units
ADCS-ADL, Estimate (difference vs control) (Table 3, AChEI/Mem as interaction term, 65 weeks, 75 mg b.i.d. monotherapy): 6.48 ADCS-ADL units
ADCS-ADL, Estimate (difference vs control) (Table 3, AChEI/Mem as interaction term, 65 weeks, 125 mg b.i.d. + AChEI/Mem): −1.62 ADCS-ADL units
ADCS-ADL, Estimate (difference vs control) (Table 3, AChEI/Mem as interaction term, 65 weeks, 125 mg b.i.d. monotherapy): 6.92 ADCS-ADL units and 6.93 ADCS-ADL units
ADCS-ADL, Estimate (change from baseline) (Table 3, AChEI/Mem as interaction term, 65 weeks, control arm (4 mg b.i.d.)): −7.92 ADCS-ADL units
ADCS-ADL, Estimate (change from baseline) (Table 4 post-hoc, control-arm subjects, 4 mg b.i.d. + AChEI/Mem): −8.90 ADCS-ADL units
ADCS-ADL, Estimate (difference) (Table 4 post-hoc, control-arm subjects, 4 mg b.i.d. monotherapy vs 4 mg b.i.d. + AChEI/Mem): 7.19 ADCS-ADL units
ADCS-ADL, Estimate (change from baseline) (Table 7, mild AD, 4 mg b.i.d. + AChEI/Mem (control-arm subjects)): −3.86 ADCS-ADL units
ADCS-ADL, Estimate (difference) (Table 7, mild AD, 4 mg b.i.d. alone vs 4 mg b.i.d. + AChEI/Mem): 5.20 ADCS-ADL units
ADCS-ADL, Estimate (difference) (Table 7, mild AD, 75 mg b.i.d. alone vs control arm as randomised): 4.65 ADCS-ADL units
ADCS-ADL, Estimate (difference) (Table 7, mild AD, 125 mg b.i.d. alone vs control arm as randomised): 7.77 ADCS-ADL units
ADCS-ADL, Estimate (change from baseline) (Table 7, mild AD, control arm as randomised (4 mg b.i.d.)): −3.20 ADCS-ADL units
ADCS-ADL, Estimate (change from baseline) (Table 7, moderate AD, 4 mg b.i.d. + AChEI/Mem (control-arm subjects)): −11.91 ADCS-ADL units
ADCS-ADL, Estimate (difference) (Table 7, moderate AD, 4 mg b.i.d. alone vs 4 mg b.i.d. + AChEI/Mem): 7.70 ADCS-ADL units
ADCS-ADL, Estimate (difference) (Table 7, moderate AD, 75 mg b.i.d. alone vs control arm as randomised): 6.89 ADCS-ADL units
ADCS-ADL, Estimate (difference) (Table 7, moderate AD, 125 mg b.i.d. alone vs control arm as randomised): 5.53 ADCS-ADL units
ADCS-ADL, Estimate (change from baseline) (Table 7, moderate AD, control arm as randomised (4 mg b.i.d.)): −10.93 ADCS-ADL units
ADCS-ADL decline at 12 months (mean±se) (control arm (LMTM 4 mg b.i.d.), 12 months): −6.51±0.63
Mean treatment benefit relative to control on ADCS-ADL (mild patients, LMTM monotherapy): 156%±39%
